A word on the logD: it is the decadic logarithm of the distribution of all forms, ionised or not, between an organic phase and buffer at a given pH. The term IC50 denotes the point on the concentration scale where inhibition reaches its midpoint.

The record followed here is patent publication US20240123080A1, “CYTOTOXIC COMPOUNDS AND CONJUGATES THEREOF” (Seagen Inc., priority 2022, published 2024).

Where a SMILES comes first, the peptide text is derived from it. [ ]: non-standard residue; d: D form. The star is where a group is joined. Dolaproine = CO[C@@H]([C@@H]1CCCN1)[C@@H](C)C(=O)O; Dil = CC[C@H](C)[C@H](NC)[C@@H](CC(=O)O)OC; X1 = C[C@@H](N*)[C@@H](O)c1ccccc1; NMeV = CN[C@H](C(=O)O)C(C)C

Data set [1] in a line: LogD, miniaturized 1-octanol/pH 7.4 buffer shake flask method, LC/MS/MS. The format is physicochemical. As for the experimental part: The LogD (distribution coefficient) of the compounds was measured using a miniaturized 1-octanol/pH 7.4 buffer shake flask method followed by LC/MS/MS analysis. Values were determined by measuring the compound partitioned in the organic and buffered layers.

The test system of data set [2] is DEL, Karpas299, and L540cy cell lines. The data set can be described thus: Average cytotoxicity of DEL, Karpas299, and L540cy cell lines. It is filed as cell-based. As to conditions: read-out: Avg IC50 Free drug. As for the experimental part:
The cytotoxicity of free drugs and drug conjugates were measured by a cell proliferation assay employing the protocol described in Promega Corp. Technical Bulletin TB288; and Mendoza et al., 2002, Cancer Res. 62:5485-5488), the methods of which are specifically incorporated by reference herein. Briefly, an aliquot of 40 μl of cell culture containing about 400 cells in medium is deposited in each well of a 384-well, opaque-walled plate. A 10 μL aliquot of free drug or drug conjugate is added to the experimental wells and incubated for 96 h and are then equilibrated to room temperature for approximately 30 minutes whereupon a volume of CellTiter-Glo™ reagent equal to the volume of cell culture medium present in each well is added. The contents are mixed for 2 minutes on an orbital shaker to induce cell lysis and the plate is incubated at room temperature for 10 minutes to stabilize the luminescence signal for recordation.
Tolerability of an ADC comprising the compound of Example 8 of the present application was compared to tolerability of ADCs comprising the known compounds MMAE and MMAF. Without being bound by theory, the improvements in tolerability are believed to be related to reduced toxicities in the bone marrow and in the liver that are a result of the OH moieties on the compound of Example 8.

Another data set relates to DEL ALCL. The data set can be described thus: In vitro cytotoxicity, cell proliferation assay (CellTiter-Glo, 96 h). It is filed as cell-based. The following applies: auristatin free drug. (ATP-based viability assays read luminescence as a measure of living cells.)
Another data set relates to Karpas299 NHL. The description is as above. It is filed as cell-based. The following applies: Homo sapiens, KARPAS-299, auristatin free drug.
Another data set concerns L540cy HL. The description is as above. The format is cell-based. The following applies: auristatin free drug.
The next data set deals with CALU1. The data set can be described thus: In vitro cytotoxicity of auristatin ADCs and free drugs (CellTiter-Glo, 96 h). As to conditions: for IC50, CALU1: ADC, 96 h. The format is cell-based. As for the experimental part: (§1) Cancer cells were counted and plated in 40 μL complete growth media in 384-well, white-walled tissue culture treated plates (Corning). Cell plates were incubated at 37° C. and with 5% CO2 overnight to allow the cells to equilibrate. Stock solutions containing ADCs or free drugs were serially diluted in RPMI-1640+20% fetal bovine serum (FBS). 10 μL of each concentration were then added to each cell plate in duplicate. Cells were then incubated at 37° C. and with 5% CO2 for 96 hours, upon which, the cell plates were removed from the incubator and allowed to cool to room temperature for 30 minutes prior to analysis. CellTiter-Glo® luminescent assay reagent (Promega Corporation, Madison, WI) was prepared according to Promega's protocol. 10 μL of CellTiter-Glo® were added to assay plates using a Formulatrix Tempest liquid handler (Formulatrix) and the plates were protected from light for 30 minutes at room temperature. The luminescence of the samples was measured using an EnVision Multimode plate reader (Perkin Elmer, Waltham, MA). Raw data were analyzed in Graphpad Prism (San Diego, CA) using a nonlinear, 4-parameter curve fit model [Y=Bottom+(Top-Bottom)/(1+10^((LogEC50−X)*HillSlope))]. Results are reported as IC50 values, which are defined as the concentration of ADC or free drug required to reduce cell viability to 50%.

Another data set relates to A2058. The data set is described as above. It is filed as cell-based. As to conditions: for IC50, A2058: ADC, 96 h. As for the experimental part: as §1
For the next data set, the system named is SKMEL5. Described as above. The following applies: for IC50, SKMEL5: ADC, 96 h. The format is cell-based. As for the experimental part: as §1
The next data set relates to SKMEL28. Described as above. The format is cell-based. As for the experimental part: as §1
Data set [3] concerns cynomolgus monkeys. The data set can be described thus: In vivo safety study of hCR011 ADCs, hematology and clinical chemistry (Example 97). The arrangement: species or system cynomolgus monkey. The following applies: 3 mg/kg, four weekly i.v. doses, DAR=4. As for the experimental part:
In vivo safety studies were done in naive cynomolgus monkeys. Studies had 1 or 2 animals/group/timepoint of hCR011-MC-VC-MMAE (DAR=4) or hCR011-Example 60 (DAR=4). Animals were administered four weekly doses of 3, 5, or 10 mg/kg of ADC via intravenous (slow bolus) injection. Baseline measurements for hematology and clinical chemistry parameters were taken from blood drawn at one or two time points prior to dosing, and post-dose timepoints were collected at day 8, and also on days 15 and 29 (hematology only).

The test system of the next data set is SKBR3. The data set can be described thus: In vitro cytotoxicity of auristatin ADCs and free drugs (CellTiter-Glo, 96 h). As to conditions: ADC, Table 8. The format is cell-based. As for the experimental part:
as §1

The next data set relates to HCC2218. Described as above. The following applies: ADC, Table 8. The format is cell-based. As for the experimental part: as §1
For the next data set, the system named is WM2664. The data set is described as above. As to conditions: ADC, Table 8. It is filed as cell-based. As for the experimental part: as §1
The test system of data set [4] is cynomolgus monkeys. The data set can be described thus: In vivo toxicology study of hCR011 ADCs at 5 mg/kg (Example 98). The arrangement: species or system cynomolgus monkey. The following applies: DAR=4. As for the experimental part: In vivo toxicology studies were done in naive cynomolgus monkeys. Studies had 2 animals/group/timepoint of hCR011-MC-VC-MMAE (DAR=4) or hCR011-Example 60 (DAR=4). Animals were administered four weekly doses of 5 mg/kg of ADC via intravenous (slow bolus) injection.

`CC[C@H](C)[C@@H]([C@@H](CC(=O)N1CCC[C@H]1[C@H](OC)[C@@H](C)C(=O)N[C@H](C)[C@@H](O)c1ccccc1)OC)N(C)C(=O)[C@@H](NC(=O)[C@@H](NC)C(C)C)C(C)C` [MMAE, monomethyl auristatin E, reference compound] (H-[NMeV]V[Dil][Dolaproine]-X1) yielded a logD in data set [1] of 1.9. Also, the IC50 in data set [2] is 0.2 nM; in the data set on DEL ALCL it was 0.05 nM; in the data set with Karpas299 NHL, 0.1 nM; with L540cy HL, 0.1 nM; in the data set with CALU1 (Homo sapiens, Calu-1, 96 h, read-out: IC50, CALU1), 0.6 nM; with A2058 (Homo sapiens, A2058, 96 h, read-out: IC50, A2058), 0.3 nM. Further, the IC50 turned out to be 0.2 nM with SKMEL5 (Homo sapiens, SK-MEL-5, 96 h, read-out: IC50, SKMEL5) and 0.4 nM in the data set with SKMEL28 (Homo sapiens, SK-MEL-28, 96 h, read-out: IC50, SKMEL28).

Regarding “hCR011-MC-VC-MMAE: "conjugate hCR011-MC-VC-MMAE" "(DAR=4)" [reference compound]”, the “neutrophil counts post-administration, FIG. 17” value in the data set with cynomolgus monkeys [3] was “a decrease relative to baseline on days 8, 15, and 29”. In addition, the “IC50, CALU1” value is greater than 30K in the data set with CALU1 (Table 8) and 14251 ng/mL in the data set with CALU1 (Table 9). The “IC50, SKBR3” value with SKBR3 came to 2.69 µg/mL. In addition, the “IC50, A2058” value in the data set on A2058 (Table 8) was determined as 24.3 µg/mL; in the data set with A2058 (Table 9), 11.118 µg/mL. In addition, the “IC50, SKMEL5” value in the data set with SKMEL5 (Table 8) was 0.916 µg/mL; in the data set on SKMEL5 (Table 9) it was 0.668 µg/mL. Moreover, in the data set on SKMEL28 (ADC, Table 9, 96 h), the “IC50, SKMEL28” value was 14.02 µg/mL. In addition, the “IC50, HCC2218” value with HCC2218 was greater than 30K. In addition, in the data set on WM2664, the “IC50, WM2664” value is 4.468 µg/mL. For the same compound, in the data set with cynomolgus monkeys [4], the “neutrophil counts post-dose on Day 8, FIG. 21” value is recorded as “a decrease relative to baseline”.
